Assay results published in patent EP2401611B1, “IMPROVED METHODS FOR IDENTIFICATION” (Cambridge Enterprise Limited, priority 2009, dated 2010).
Like-named read-outs stand apart in the source and are kept apart here.

How the values were obtained:
THP-1 cells = test: MCP-1 induced THP-1 cell migration (Transwell) assay; type: cell-based, human
Description: Leukocyte migration was measured using the 96-well format micro Transwell^RTM assay system from Neuroprobe (Gaithersburg, MD, USA). In principle, this assay consists of two chambers separated by a porous membrane. The chemoattractant is placed in the lower compartment and the cells are placed in the upper compartment. After incubation for a period at 37°C the cells move towards the chemoattractant, and the number of cells in the lower compartment is proportional to the chemoattractant activity (relative to a series of controls).
The method was performed essentially as previously described (Reckless & Grainger (1999) Biochem. J. 340:803-11).
First, the cell suspension to be placed in the upper compartment was prepared. The THP-1 cells were pelleted by centrifugation (770 x g; 4 mins) and washed with Geys Balanced Salt Solution with 1mg/ml BSA (GBSS + BSA). This wash was then repeated, and the cells re-pelleted before being resuspended in a small volume of GBSS + BSA for counting, for example using a standard haemocytometer.
The volume of GBSS + BSA was then adjusted depending on the number of cells present so that the cells were at final density of 4.45 x 10^6 cells per ml of GBSS + BSA. This ensured that there were 100,000 THP-1 cells in each 25µl of the solution to be placed in the upper chamber of the plate.
The suspension of THP-1 cells at 4.45 x 10^6 cells/ml was divided into three pots. To one pot the BSCI was added at an appropriate final concentration, in an appropriate vehicle (for example (S)- 3-(2',2'-dimethylpropanoylamino)-tetrahydropyridin-2-one was added at 1nM from a stock solution in GBSS). To the second pot, the BSCI was added at the same concentration as in the first pot, but additionally the sstr2 antagonist was also added (for example BIM 23454 [Tulipano et al. (2002) 143:1218-24] or BIM 23627 were added at 66nM final concentration from a stock solution in GBSS). To the third pot, GBSS + BSA plus vehicle as appropriate was added so that the volumes in three pots are equal, acting as a control.
Next, the chemoattractant solution to be placed in the lower compartment was prepared. […]. Note that, as recommended by Frow et al (Med. Res. Rev. 24:276-98) this is the concentration of MCP-1 which induces maximal migration in this system. This solution was divided into three pots, as for the cell suspension. To one pot, the BSCI was added to the same final concentration as was added to the cell suspension, in the second pot the BSCI and the sstr2 antagonist were both added at the same concentration as previously added to the cell suspension, while to the remaining pot GBSS + BSA plus vehicle as appropriate was added so that the volumes in the three pots were equal. Note that the volume of liquid that needs to be added to make the addition of the BSCI and the sstr2 antagonist compounds needs to be taken into account, when establishing the final concentration of MCP-1 in the solution for the lower compartment and the final concentration of cells in the upper compartment.
Once the chemoattractant solutions for the lower wells and cell solutions for the upper chambers were prepared, the migration chamber was assembled. 29 µl of the appropriate chemoattractant solution was placed into the lower well of the chamber. Assays were performed with at least triplicate determinations of each condition. Once all the lower chambers were filled, the porous membrane was applied to the chamber in accordance with the manufacturer's instructions. Finally, 25 µl of the appropriate cell solution was applied to each upper chamber. A plastic lid was placed over the entire apparatus to prevent evaporation.
The assembled chamber was incubated at 37 °C, 5% CO2, for 2 hours. A suspension of cells in GBSS + BSA was also incubated under identical conditions in a tube: these cells were used to construct a standard curve for determining the number of cells that migrated to the lower chamber under each condition. […]

Panc-2H4 = test: Human Panc-2H4 insulin suppression assay; type: cell-based
Source text: (§1) Two different assays for "classical" sstr2 functions were adopted: (1) cultured foetal rat pituitary cells secreted growth hormone which is inhibited by sstr2 agonists in a dose-dependent fashion and (2) selected glucose-sensitive sub-clones of the human Panc-1 cell line secrete insulin which is inhibited by sstr2 agonists in a dose-dependent fashion.
Glucose-sensitive sub-clones of the human Panc-1, a cell line derived from a pleiomorphic epithelioid carcinoma of the exocrine pancreas, were obtained essentially as described by Hamil et al. (2008) Biomed. Sci. Instrum. 44:441-6. Briefly, Panc-1 cells were subcultured in 24 well plates, and the medium was supplemented with an additional 5% glucose. […] The resulting sub-lines were then tested for glucose sensitivity by preparing wells of a 96-well plate (5 x 10^4 cells per well) which were then exposed to cultured medium containing a range of glucose concentrations (low glucose DMEM, DMEM, DMEM + 1% glucose, DMEM ± 2.5% glucose and DMEM + 5% glucose). After 24hrs incubation, the conditioned medium was collected and assayed for insulin secretion by ELISA (Linco; cat# EZHI-14K) in accordance with the manufacturer's instructions. […] Further 96 well plates were prepared using Panc-2H4 (5 x 10^4 cells per well) in DMEM. After 24hrs, the medium was switched to DMEM + 5% glucose containing various test agents at various concentrations (triplicate wells per condition). After a further 24hrs, the conditioned medium was harvested and the concentration of insulin was determined by ELISA as described above.
(§2) Results were reported as the mean ± SD, expressed as the fold change from cells in the presence of vehicle only.

fetal rat pituicytes = test: Rat pituicyte GH suppression assay; type: cell-based
Source text: as §1
Methods: Cultures of fetal rat pituicytes were established exactly as previously described (Murray et al. (2004) J. Clin. Endocrinol. Metab. 89:3027-32) by enzymatic dispersion. After 48hrs in low glucose DMEM plus 10% FCS, cells in 48 well plates (5 x 10^4 cells per well) were washed for 4hrs in serum-free DMEM and then incubated with test agents at various concentrations for a further 24hrs in serum-free DMEM. At the end of this period, the conditioned medium was harvested, any cell debris removed by centrifugation and assayed for GH using a commercially available ELISA (Linco; cat# EZRMGH-45K) in accordance with the manufacturer's instructions.
as §2

[1] = target: type 2 somatostatin receptor (sstr2), human (human) (UniProt P30874); test: cell-based or functional assay
Sequence of type 2 somatostatin receptor (sstr2), human (human) (P30874 whole entry, form in doubt): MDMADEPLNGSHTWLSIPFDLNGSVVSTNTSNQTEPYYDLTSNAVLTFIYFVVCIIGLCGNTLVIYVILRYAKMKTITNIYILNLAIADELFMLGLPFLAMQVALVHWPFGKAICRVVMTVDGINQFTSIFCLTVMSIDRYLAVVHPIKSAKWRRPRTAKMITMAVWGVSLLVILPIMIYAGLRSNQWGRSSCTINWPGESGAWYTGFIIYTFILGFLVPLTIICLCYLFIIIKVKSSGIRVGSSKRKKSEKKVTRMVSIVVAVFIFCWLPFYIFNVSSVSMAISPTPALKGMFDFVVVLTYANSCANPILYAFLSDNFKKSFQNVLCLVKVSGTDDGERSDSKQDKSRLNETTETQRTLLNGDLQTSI

[2] = Table 4, 0.01nM to 1,000nM in DMSO vehicle, read-out: Chemokine-induced THP-1 cell migration assay ("BSCI" target) ED50
[3] = Table 4, THP-1 migration ED50 versus insulin suppression ED50
[4] = Table 4, 0.01nM to 1,000nM in DMSO vehicle, read-out: Panc-2H4 insulin suppression assay ("classical" target) ED50
[5] = Table 3, percentage suppression compared to vehicle

| Molecule | Chemokine-induced THP-1 cell migration assay ("BSCI" target) Max Effect (%) (THP-1 cells; Table 4) | EC50 (THP-1 cells; [2]) [µM] | RATIO (THP-1 cells; [3]) | Panc-2H4 insulin suppression assay ("classical" target) Max Effect (%) (Panc-2H4; Table 4) | EC50 (Panc-2H4; [4]) [µM] | other results |
| --- | --- | --- | --- | --- | --- | --- |
| CC(c1c[nH]c2ccccc12)C(NC(=O)NC1CCCNC1=O)C(=O)NCC1CCCC(CN)C1 (stereo not drawn) [Compound C] | 100 | 0.002 | 0.02 | 56 | 0.082 | – |
| CC(=O)NC(=O)C(NC(=O)N1CCC(n2c(=O)[nH]c3ccccc32)CC1)C(C)c1c[nH]c2ccccc12 (stereo not drawn) [Compound E] | <10 | > 1 | – | <10 | > 1 | – |
| C[C@@H](c1c[nH]c2ccccc12)[C@@H](NC(=O)N1CCC(n2c(=O)[nH]c3ccccc32)CC1)C(=O)NC[C@@H]1CCC[C@H](CN)C1 [L-779,976] | 65 | 0.45 | 26.5 | 40 | 0.017 | Human chemokine-induced THP-1 migration assay Max effect (%) (THP-1 cells; Table 3): 65%; "Classical" : "BSCI" potency ratio Human (THP-1 cells; Table 3, THP-1 migration ED50 versus Panc-2H4 insulin suppression ED50): 27; EC50 (THP-1 cells; Table 3, read-out: Human chemokine-induced THP-1 migration assay ED50): 0.45 µM; Chemokine-induced THP-1 cell migration assay ("BSCI" target) Max Effect (%) (THP-1 cells; Table 5): 65%; RATIO (THP-1 cells; Table 5, THP-1 migration ED50 versus insulin suppression ED50): 26.5; EC50 (THP-1 cells; Table 5, library screening hits, read-out: Chemokine-induced THP-1 cell migration assay ("BSCI" target) ED50): 0.45 µM; Human Panc-2H4 insulin suppression assay Max effect (%) (Panc-2H4; [5]): 40%; EC50 (Panc-2H4; Table 3, read-out: Human Panc-2H4 insulin suppression assay ED50): 0.017 µM; Panc-2H4 insulin suppression assay ("classical" target) Max Effect (%) (Panc-2H4; Table 5): 40%; EC50 (Panc-2H4; Table 5, library screening hits, read-out: Panc-2H4 insulin suppression assay ("classical" target) ED50): 0.017 µM; Rat pituicyte GH suppression assay Max effect (%) (fetal rat pituicytes; [5]): 55%; EC50 (fetal rat pituicytes; Table 3, read-out: Rat pituicyte GH suppression assay ED50): 0.0029 µM |
| CC(c1c[nH]c2ccccc12)C(NC(=O)N1CCC(NC(N)=O)CC1)C(=O)NCC1CCCC(CN)C1 (stereo not drawn) [Compound A] | – | > 1 | – | – | – | – |
| cortistatin (peptide) | – | – | – | – | – | ED50 for inhibition of MCP-1 induced THP-1 cell migration [1]: 0.075 µM |
| CC(c1c[nH]c2ccccc12)C(NC(=O)N1CC(=O)NC(=O)C1)C(=O)NCC1CCCC(CN)C1 (stereo not drawn) [Compound B] | 100 | 0.22 | 1.3 | 52 | 0.167 | – |
